Source: PubChem BioAssay AID2060507 (Molecular Pharmacology Branch, DTP, NCI, 2025)

Tested on: 519858-162-T-J1-PDC complex spheroid viability
Assay: Anticancer human tumor 519858-162-T-J1-PDC patient-derived colon adenocarcinoma cell line growth inhibition [GQUAD]
Conditions: for IC50: curve of first compound; for viability, T/C: stronger effect = lower value
How it was run: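 Viability of tumor cells grown as complex spheroids with endothelial and stromal cells, exposed to drug combinations. Top concentration at or near clinical Cmax (else 10 microM), diluted in half-log increments.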

[1] = second compound 0.0316 µM, first compound 0.0316 µM
[2] = second compound 0.0316 µM, first compound 0.1 µM
[3] = second compound 0.0316 µM, first compound 0.316 µM
[4] = second compound 0.0316 µM, first compound 1 µM
[5] = second compound 0.0316 µM, first compound 3.16 µM
[6] = second compound 0.0316 µM, first compound 10 µM
[7] = second compound 0.1 µM, first compound 0.0316 µM
[8] = second compound 0.1 µM, first compound 0.1 µM
[9] = second compound 0.1 µM, first compound 0.316 µM
[10] = second compound 0.1 µM, first compound 1 µM
[11] = second compound 0.1 µM, first compound 3.16 µM
[12] = second compound 0.1 µM, first compound 10 µM
[13] = second compound 0.316 µM, first compound 0.0316 µM
[14] = second compound 0.316 µM, first compound 0.1 µM
[15] = second compound 0.316 µM, first compound 0.316 µM
[16] = second compound 0.316 µM, first compound 1 µM
[17] = second compound 0.316 µM, first compound 3.16 µM
[18] = second compound 0.316 µM, first compound 10 µM
[19] = second compound 1 µM, first compound 0.0316 µM
[20] = second compound 1 µM, first compound 0.1 µM
[21] = second compound 1 µM, first compound 0.316 µM
[22] = second compound 1 µM, first compound 1 µM
[23] = second compound 1 µM, first compound 3.16 µM
[24] = second compound 1 µM, first compound 10 µM
[25] = second compound 3.16 µM, first compound 0.0316 µM
[26] = second compound 3.16 µM, first compound 0.1 µM
[27] = second compound 3.16 µM, first compound 0.316 µM
[28] = second compound 3.16 µM, first compound 1 µM
[29] = second compound 3.16 µM, first compound 3.16 µM
[30] = second compound 3.16 µM, first compound 10 µM
[31] = second compound 10 µM, first compound 0.0316 µM
[32] = second compound 10 µM, first compound 0.1 µM
[33] = second compound 10 µM, first compound 0.316 µM
[34] = second compound 10 µM, first compound 1 µM
[35] = second compound 10 µM, first compound 3.16 µM
[36] = second compound 10 µM, first compound 10 µM
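Wherever viability, T/C is given: 100% = DMSO vehicle control viability.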

C=CC(=O)N1CCN(c2nc(=O)n(-c3c(C)ccnc3C(C)C)c3nc(-c4c(O)cccc4F)c(F)cc23)C(C)C1 (stereo not drawn) + Cc1[nH]c2ccc(F)cc2c1-c1nc2c3cccnc3c3ncccc3c2[nH]1
IC50 (second compound 0.0316 µM): > 10 µM
IC50 (second compound 0.1 µM): > 10 µM
IC50 (second compound 0.316 µM): > 10 µM
IC50 (second compound 1 µM): > 10 µM
IC50 (second compound 3.16 µM): > 10 µM
IC50 (second compound 10 µM): < 0.0316 µM
viability, T/C [1]: 80.3%
viability, T/C [2]: 88.6%
viability, T/C [3]: 65.3%
viability, T/C [4]: 81.8%
viability, T/C [5]: 90.9%
viability, T/C [6]: 71.1%
viability, T/C [7]: 130%
viability, T/C [8]: 96.3%
viability, T/C [9]: 104%
viability, T/C [10]: 89.7%
viability, T/C [11]: 81.4%
viability, T/C [12]: 82.2%
viability, T/C [13]: 76.3%
viability, T/C [14]: 95.4%
viability, T/C [15]: 62.8%
viability, T/C [16]: 73%
viability, T/C [17]: 74.7%
viability, T/C [18]: 97.5%
viability, T/C [19]: 97.3%
viability, T/C [20]: 75.4%
viability, T/C [21]: 94.8%
viability, T/C [22]: 85.8%
viability, T/C [23]: 79.3%
viability, T/C [24]: 69.3%
viability, T/C [25]: 59.6%
viability, T/C [26]: 73.6%
viability, T/C [27]: 79.5%
viability, T/C [28]: 46.4%
viability, T/C [29]: 72.1%
viability, T/C [30]: 53.5%
viability, T/C [31]: 39.9%
viability, T/C [32]: 44%
viability, T/C [33]: 65.6%
viability, T/C [34]: 62.8%
viability, T/C [35]: 52.5%
viability, T/C [36]: 80.4%

CC(=O)O[C@H]1C(=O)[C@@]2(C)[C@H]([C@H](OC(=O)c3ccccc3)[C@]3(O)C[C@H](OC(=O)[C@H](O)[C@@H](NC(=O)c4ccccc4)c4ccccc4)C(C)=C1C3(C)C)[C@]1(OC(C)=O)CO[C@@H]1C[C@@H]2O + Cc1[nH]c2ccc(F)cc2c1-c1nc2c3cccnc3c3ncccc3c2[nH]1
IC50 (second compound 0.0316 µM): > 10 µM
IC50 (second compound 0.1 µM): > 10 µM
IC50 (second compound 0.316 µM): > 10 µM
IC50 (second compound 1 µM): > 10 µM
IC50 (second compound 3.16 µM): > 10 µM
IC50 (second compound 10 µM): > 10 µM
viability, T/C [1]: 80.1%
viability, T/C [2]: 136%
viability, T/C [3]: 103%
viability, T/C [4]: 82.4%
viability, T/C [5]: 71.2%
viability, T/C [6]: 79.7%
viability, T/C [7]: 87.8%
viability, T/C [8]: 97.5%
viability, T/C [9]: 109%
viability, T/C [10]: 98.9%
viability, T/C [11]: 97%
viability, T/C [12]: 116%
viability, T/C [13]: 91.1%
viability, T/C [14]: 78%
viability, T/C [15]: 70.8%
viability, T/C [16]: 72.3%
viability, T/C [17]: 108%
viability, T/C [18]: 126%
viability, T/C [19]: 116%
viability, T/C [20]: 62.5%
viability, T/C [21]: 58.5%
viability, T/C [22]: 89.3%
viability, T/C [23]: 69.4%
viability, T/C [24]: 109%
viability, T/C [25]: 67.5%
viability, T/C [26]: 77.5%
viability, T/C [27]: 51.1%
viability, T/C [28]: 106%
viability, T/C [29]: 77.8%
viability, T/C [30]: 55.5%
viability, T/C [31]: 54.5%
viability, T/C [32]: 93.7%
viability, T/C [33]: 68.1%
viability, T/C [34]: 74.4%
viability, T/C [35]: 75.5%
viability, T/C [36]: 104%

CC(C)n1c(=O)n(C)c2cnc3cc(F)c(-c4ccc(OCCCN5CCCCC5)nc4)cc3c21 + Cc1[nH]c2ccc(F)cc2c1-c1nc2c3cccnc3c3ncccc3c2[nH]1
IC50 (second compound 0.0316 µM): > 10 µM
IC50 (second compound 0.1 µM): > 10 µM
IC50 (second compound 0.316 µM): > 10 µM
IC50 (second compound 1 µM): > 10 µM
IC50 (second compound 3.16 µM): > 10 µM
IC50 (second compound 10 µM): > 10 µM
viability, T/C [1]: 97.7%
viability, T/C [2]: 124%
viability, T/C [3]: 114%
viability, T/C [4]: 107%
viability, T/C [5]: 78.2%
viability, T/C [6]: 67.9%
viability, T/C [7]: 77.5%
viability, T/C [8]: 96.8%
viability, T/C [9]: 86.6%
viability, T/C [10]: 91.3%
viability, T/C [11]: 89.7%
viability, T/C [12]: 121%
viability, T/C [13]: 91.5%
viability, T/C [14]: 94.2%
viability, T/C [15]: 82%
viability, T/C [16]: 101%
viability, T/C [17]: 84.8%
viability, T/C [18]: 80.7%
viability, T/C [19]: 79.2%
viability, T/C [20]: 85.5%
viability, T/C [21]: 101%
viability, T/C [22]: 119%
viability, T/C [23]: 96.4%
viability, T/C [24]: 69.5%
viability, T/C [25]: 85.9%
viability, T/C [26]: 75.6%
viability, T/C [27]: 75.9%
viability, T/C [28]: 56.3%
viability, T/C [29]: 50.5%
viability, T/C [30]: 67.3%
viability, T/C [31]: 65.8%
viability, T/C [32]: 73.8%
viability, T/C [33]: 56.8%
viability, T/C [34]: 51.4%
viability, T/C [35]: 54.9%
viability, T/C [36]: 53%

CCCS(=O)(=O)Nc1ccc(F)c(C(=O)c2c[nH]c3ncc(-c4ccc(Cl)cc4)cc23)c1F + Cc1[nH]c2ccc(F)cc2c1-c1nc2c3cccnc3c3ncccc3c2[nH]1
IC50 (second compound 0.0316 µM): > 10 µM
IC50 (second compound 0.1 µM): > 10 µM
IC50 (second compound 0.316 µM): > 10 µM
IC50 (second compound 1 µM): > 10 µM
IC50 (second compound 3.16 µM): 7 µM
IC50 (second compound 10 µM): > 10 µM
viability, T/C [1]: 90.7%
viability, T/C [2]: 92%
viability, T/C [3]: 83.7%
viability, T/C [4]: 129%
viability, T/C [5]: 135%
viability, T/C [6]: 101%
viability, T/C [7]: 103%
viability, T/C [8]: 119%
viability, T/C [9]: 97.9%
viability, T/C [10]: 113%
viability, T/C [11]: 87.6%
viability, T/C [12]: 107%
viability, T/C [13]: 101%
viability, T/C [14]: 116%
viability, T/C [15]: 108%
viability, T/C [16]: 75.4%
viability, T/C [17]: 112%
viability, T/C [18]: 119%
viability, T/C [19]: 62.5%
viability, T/C [20]: 74.1%
viability, T/C [21]: 99.3%
viability, T/C [22]: 99.2%
viability, T/C [23]: 115%
viability, T/C [24]: 101%
viability, T/C [25]: 86.3%
viability, T/C [26]: 51.3%
viability, T/C [27]: 81.9%
viability, T/C [28]: 72%
viability, T/C [29]: 86%
viability, T/C [30]: 38.7%
viability, T/C [31]: 79.8%
viability, T/C [32]: 53.7%
viability, T/C [33]: 60.8%
viability, T/C [34]: 89.2%
viability, T/C [35]: 105%
viability, T/C [36]: 109%
